This passage reports inhibition results from patent US20140243335A1, “SUBSTITUTED HYDOXAMIC ACIDS AND USES THEREOF” (Millennium Pharmaceuticals, Inc., priority 2010, published 2014).

In this assay the target is T1, purified human HDAC6 (Homo sapiens, UniProt Q9UBN7).
T1 construct: purchased BPS Bioscience 5006
T1 sequence (Q9UBN7 1-1215): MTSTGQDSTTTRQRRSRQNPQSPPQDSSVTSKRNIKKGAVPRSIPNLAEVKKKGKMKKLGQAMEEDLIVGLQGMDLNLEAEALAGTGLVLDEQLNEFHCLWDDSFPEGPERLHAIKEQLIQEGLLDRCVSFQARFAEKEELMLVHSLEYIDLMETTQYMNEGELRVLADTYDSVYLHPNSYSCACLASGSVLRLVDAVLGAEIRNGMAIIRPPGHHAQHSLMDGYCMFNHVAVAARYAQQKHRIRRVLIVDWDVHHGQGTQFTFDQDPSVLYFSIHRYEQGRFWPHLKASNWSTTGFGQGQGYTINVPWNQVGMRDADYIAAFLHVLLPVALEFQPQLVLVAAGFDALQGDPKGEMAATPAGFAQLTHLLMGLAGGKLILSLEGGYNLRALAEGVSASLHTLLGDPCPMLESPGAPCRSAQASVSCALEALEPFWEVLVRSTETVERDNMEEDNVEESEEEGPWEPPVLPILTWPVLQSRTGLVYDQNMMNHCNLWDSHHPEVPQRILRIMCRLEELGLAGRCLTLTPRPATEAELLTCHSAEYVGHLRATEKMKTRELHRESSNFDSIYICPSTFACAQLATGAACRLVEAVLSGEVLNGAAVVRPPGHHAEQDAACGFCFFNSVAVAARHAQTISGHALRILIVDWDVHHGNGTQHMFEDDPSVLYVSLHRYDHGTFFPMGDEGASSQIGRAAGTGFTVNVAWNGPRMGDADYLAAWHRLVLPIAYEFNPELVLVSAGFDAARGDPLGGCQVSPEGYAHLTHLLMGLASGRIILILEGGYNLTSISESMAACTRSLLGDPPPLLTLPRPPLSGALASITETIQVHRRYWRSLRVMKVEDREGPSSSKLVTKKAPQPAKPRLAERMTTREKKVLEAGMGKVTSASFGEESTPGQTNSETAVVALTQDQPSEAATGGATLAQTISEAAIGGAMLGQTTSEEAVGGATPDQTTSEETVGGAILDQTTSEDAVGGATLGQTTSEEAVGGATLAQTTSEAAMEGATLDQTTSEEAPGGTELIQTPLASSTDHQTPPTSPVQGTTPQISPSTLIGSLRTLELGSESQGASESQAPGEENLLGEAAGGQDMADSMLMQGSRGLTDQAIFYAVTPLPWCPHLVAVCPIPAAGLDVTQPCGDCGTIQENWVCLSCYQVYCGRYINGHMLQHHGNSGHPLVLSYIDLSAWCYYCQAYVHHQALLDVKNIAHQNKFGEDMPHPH
The experiment in a line: HDAC6 Enzyme Assay. Type of assay: biochemical. Conditions: HDAC6 inhibition at a compound concentration of 0.412 μM; read-out: Percent Inhibition at 0.412 μM.
For orientation: inhibition means how much of the control response was suppressed. For the compound `CC(C)(C)C(=O)N[C@H]1CCc2ccc(C(=O)NO)cc2C1` [Compound I-75, (7S)-7-[(2,2-dimethylpropanoyl)amino]-N-hydroxy-5,6,7,8-tetrahydronaphthalene-2-carboxamide], the inhibition at 0.412 µM turned out to be 90%.

As to `CN(C)CCOc1cccc(C2CCc3ccc(C(=O)NO)cc3C2)c1` (stereo not drawn) [Compound I-194, 7-{3-[2-(dimethylamino)ethoxy]phenyl}-N-hydroxy-5,6,7,8-tetrahydronaphthalene-2-carboxamide], the inhibition at 0.412 µM was determined as 86%.

Turning to `Cc1ccc(-c2cc(C(=O)N[C@H]3CCCc4cc(C(=O)NO)ccc43)[nH]n2)cc1` [Compound I-72, N-{(1S)-6-[(hydroxyamino)carbonyl]-1,2,3,4-tetrahydronaphthalen-1-yl}-3-(4-methylphenyl)-1H-pyrazole-5-carboxamide], the inhibition at 0.412 µM was determined as 54%.

For the compound `O=C(NO)c1ccc2c(c1)CCC(CCc1cccc(F)c1)C2` (stereo not drawn) [Compound I-103, 6-[2-(3-fluorophenyl)ethyl]-N-hydroxy-5,6,7,8-tetrahydronaphthalene-2-carboxamide], the inhibition at 0.412 µM came to 63%.

As for `COc1ccc(C(=O)N2C3CCC2c2cc(C(=O)NO)ccc23)cc1` (stereo not drawn) [Compound I-198, N-hydroxy-9-(4-methoxybenzoyl)-1,2,3,4-tetrahydro-1,4-epiminonaphthalene-6-carboxamide], the inhibition at 0.412 µM is 60%.

For the compound `CC1(C(=O)NC2CCc3cc(C(=O)NO)ccc3C2)CCNCC1` (stereo not drawn) [Compound I-170, N-{6-[(hydroxyamino)carbonyl]-1,2,3,4-tetrahydronaphthalen-2-yl}-4-methylpiperidine-4-carboxamide], the inhibition at 0.412 µM was determined as 73%.
